According to PubChem BioAssay (NCI):
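Results reflect a 48-hour exposure of cells in 96-well plates to compound at five concentrations. Here, GI50 denotes the concentration required for 50% inhibition of growth. TGI: concentration producing complete growth inhibition.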

Key:
Assay in all cases: growth of human tumour cells (NCI), 48 h
[1] = test system: ACHN renal
[2] = test system: K-562 leukemia
[3] = test system: MDA-MB-435
[4] = test system: RPMI-8226 leukemia
[5] = test system: SF-268 CNS
[6] = test system: CAKI-1 renal
[7] = test system: UACC-62 melanoma
[8] = test system: SW-620 colon
[9] = test system: SK-MEL-2 melanoma
[10] = test system: PC-3 prostate
[11] = test system: HOP-62 NSCLC
[12] = test system: EKVX NSCLC
[13] = test system: LOX IMVI melanoma
[14] = test system: BT-549 breast
[15] = test system: HL-60(TB) leukemia
[16] = test system: U251 CNS
[17] = test system: NCI/ADR-RES ovarian
[18] = test system: CCRF-CEM leukemia
[19] = test system: SNB-75 CNS
[20] = test system: OVCAR-8 ovarian
[21] = test system: MCF7 breast
[22] = test system: SNB-19 CNS
[23] = test system: OVCAR-4 ovarian
[24] = test system: SR leukemia
[25] = test system: SN12C renal
[26] = test system: UACC-257 melanoma
[27] = test system: SF-539 CNS
[28] = test system: HCC-2998 colon
[29] = test system: NCI-H460 lung
[30] = test system: HCT-15 colon
[31] = test system: UO-31 renal
[32] = test system: NCI-H226 lung
[33] = test system: DU-145 prostate
[34] = test system: SK-MEL-5 melanoma
[35] = test system: HS 578T breast
[36] = test system: RXF 393 renal
[37] = test system: NCI-H522 lung
[38] = test system: MALME-3M melanoma
[39] = test system: SK-MEL-28 melanoma
[40] = test system: A549 NSCLC
[41] = test system: T-47D breast
[42] = test system: OVCAR-3 ovarian
[43] = test system: MOLT-4 leukemia
[44] = test system: NCI-H23 lung
[45] = test system: HT29 colon
[46] = test system: HOP-92 NSCLC
[47] = test system: COLO 205 colon
[48] = test system: SK-OV-3 ovarian
[49] = test system: HCT-116 colon
[50] = test system: 786-0 renal
[51] = test system: IGROV1 ovarian
[52] = test system: SF-295 CNS
[53] = test system: OVCAR-5 ovarian
[54] = test system: KM12 colon
[55] = test system: A498 renal
[56] = test system: MDA-MB-231 breast
[57] = test system: TK-10 renal

## N#Cc1ccc(O)c(C2=NCC(c3cccc(Oc4ccccc4)c3)O2)c1 (stereo unspecified)
[1]
  GI50: 0.615 µM
  TGI: 14.3 µM
[2]
  GI50: 0.394 µM
  TGI: > 100 µM
[3]
  GI50: 1.63 µM
  TGI: > 100 µM
[4]
  GI50: 0.715 µM
  TGI: > 100 µM
[5]
  GI50: 1.3 µM
  TGI: > 100 µM
[6]
  GI50: 0.392 µM
  TGI: 37.9 µM
[7]
  GI50: 1.03 µM
  TGI: 2.27 µM
[8]
  GI50: 0.508 µM
  TGI: 22.8 µM
[9]
  GI50: 2.41 µM
  TGI: 24.4 µM
[10]
  GI50: 0.938 µM
  TGI: 41.6 µM
[11]
  GI50: 0.605 µM
  TGI: 12.7 µM
[12]
  GI50: 0.507 µM
  TGI: > 100 µM
[13]
  GI50: 0.42 µM
  TGI: 12.7 µM
[14]
  GI50: 1.96 µM
  TGI: 17.8 µM
[15]
  GI50: 0.852 µM
  TGI: 9.29 µM
[16]
  GI50: 0.503 µM
  TGI: > 100 µM
[17]
  GI50: 0.29 µM
  TGI: 6.51 µM
[18]
  GI50: 0.555 µM
  TGI: > 100 µM
[19]
  GI50: 1.08 µM
  TGI: > 100 µM
[20]
  GI50: 0.578 µM
  TGI: > 100 µM
[21]
  GI50: 0.792 µM
  TGI: 15.8 µM
[22]
  GI50: 1.39 µM
  TGI: > 100 µM
[23]
  GI50: 0.519 µM
  TGI: > 100 µM
[24]
  GI50: 0.933 µM
  TGI: > 100 µM
[25]
  GI50: 1.21 µM
  TGI: 89.5 µM
[26]
  GI50: 2.28 µM
  TGI: 7.29 µM
[27]
  GI50: 1.83 µM
  TGI: 9.27 µM
[28]
  GI50: 0.881 µM
  TGI: 57.8 µM
[29]
  GI50: 0.434 µM
  TGI: 10.2 µM
[30]
  GI50: 0.363 µM
  TGI: 36.1 µM
[31]
  GI50: 0.449 µM
  TGI: 2.75 µM
[32]
  GI50: 1.7 µM
  TGI: 11.1 µM
[33]
  GI50: 1.27 µM
  TGI: > 100 µM
[34]
  GI50: 0.549 µM
  TGI: 2.3 µM
[35]
  GI50: 3.03 µM
  TGI: > 100 µM
[36]
  GI50: 1.53 µM
  TGI: 9.56 µM
[37]
  GI50: 1.17 µM
  TGI: 12.3 µM
[38]
  GI50: 1.83 µM
  TGI: 7.76 µM
[39]
  GI50: 2.09 µM
  TGI: > 100 µM
[40]
  GI50: 0.876 µM
  TGI: 11.8 µM
[41]
  GI50: 0.817 µM
  TGI: 59.6 µM
[42]
  GI50: 0.432 µM
  TGI: 10.8 µM
[43]
  GI50: 1.67 µM
  TGI: > 100 µM
[44]
  GI50: 1.27 µM
  TGI: > 100 µM
[45]
  GI50: 5.41 µM
  TGI: 41.6 µM
[46]
  GI50: 1.81 µM
  TGI: 37 µM
[47]
  GI50: 3.13 µM
  TGI: 15.6 µM
[48]
  GI50: 1.58 µM
  TGI: 21.3 µM
[49]
  GI50: 0.587 µM
  TGI: 13.7 µM
[50]
  GI50: 0.761 µM
  TGI: 7.59 µM
[51]
  GI50: 0.787 µM
  TGI: 12.1 µM
[52]
  GI50: 0.413 µM
  TGI: 23.5 µM
[53]
  GI50: 2.95 µM
  TGI: > 100 µM
[54]
  GI50: 0.687 µM
  TGI: 23.1 µM
[55]
  GI50: 2.06 µM
  TGI: 22.3 µM
[56]
  GI50: 1.28 µM
  TGI: 12 µM

## CC(C)(C)OC(=O)N1CCc2c(sc3ncnc(N/N=C/c4cccc5ccccc45)c23)C1
[1]
  GI50: 3.24 µM
  TGI: 78.5 µM
[2]
  GI50: 2.88 µM
  TGI: 62.4 µM
[3]
  GI50: 2.47 µM
  TGI: 7.31 µM
[4]
  GI50: 2.28 µM
  TGI: 8.49 µM
[5]
  GI50: 4.59 µM
  TGI: > 100 µM
[6]
  GI50: 3.35 µM
  TGI: > 100 µM
[7]
  GI50: 2.65 µM
  TGI: 10.2 µM
[8]
  GI50: 3.87 µM
  TGI: > 100 µM
[9]
  GI50: 4.38 µM
  TGI: 25.9 µM
[10]
  GI50: 4.59 µM
  TGI: > 100 µM
[11]
  GI50: 3.79 µM
  TGI: > 100 µM
[12]
  GI50: 3.64 µM
  TGI: > 100 µM
[13]
  GI50: 3.84 µM
  TGI: 25.5 µM
[14]
  GI50: 8.45 µM
  TGI: 72.9 µM
[15]
  GI50: 2.81 µM
  TGI: 13.4 µM
[16]
  GI50: 4.25 µM
  TGI: > 100 µM
[17]
  GI50: 3.74 µM
  TGI: 43.8 µM
[18]
  GI50: 3.6 µM
  TGI: > 100 µM
[19]
  GI50: 1.67 µM
  TGI: 8.2 µM
[20]
  GI50: 4.23 µM
  TGI: > 100 µM
[21]
  GI50: 3.14 µM
  TGI: > 100 µM
[22]
  GI50: 5.05 µM
  TGI: > 100 µM
[23]
  GI50: 3.79 µM
  TGI: 80.6 µM
[24]
  GI50: 2.82 µM
  TGI: 16 µM
[25]
  GI50: 5.04 µM
  TGI: 32.9 µM
[57]
  GI50: 5.89 µM
  TGI: > 100 µM
[26]
  GI50: 5.8 µM
  TGI: 69.6 µM
[27]
  GI50: 2.72 µM
  TGI: 8.59 µM
[28]
  GI50: 12.9 µM
  TGI: > 100 µM
[29]
  GI50: 3.29 µM
  TGI: 12.7 µM
[30]
  GI50: 3.86 µM
  TGI: > 100 µM
[31]
  GI50: 2.68 µM
  TGI: 14.9 µM
[32]
  GI50: 5.29 µM
  TGI: 34.7 µM
[33]
  GI50: 5.51 µM
  TGI: > 100 µM
[34]
  GI50: 3.36 µM
  TGI: 11.1 µM
[35]
  GI50: 2.4 µM
  TGI: > 100 µM
[36]
  GI50: 2.54 µM
  TGI: 7.41 µM
[37]
  GI50: 2.26 µM
  TGI: 7.21 µM
[38]
  GI50: 3.97 µM
  TGI: 36.3 µM
[39]
  GI50: 7.78 µM
  TGI: > 100 µM
[40]
  GI50: 3.64 µM
  TGI: > 100 µM
[41]
  GI50: 3.04 µM
  TGI: 31.9 µM
[42]
  GI50: 3.95 µM
  TGI: 77.7 µM
[43]
  GI50: 3.25 µM
  TGI: 16.9 µM
[44]
  GI50: 5.25 µM
  TGI: > 100 µM
[45]
  GI50: 4.07 µM
  TGI: > 100 µM
[46]
  GI50: 2.78 µM
  TGI: 92.3 µM
[47]
  GI50: 2.79 µM
  TGI: 40.8 µM
[48]
  GI50: 4 µM
  TGI: > 100 µM
[49]
  GI50: 3.22 µM
  TGI: 30.4 µM
[50]
  GI50: 4.83 µM
  TGI: > 100 µM
[51]
  GI50: 3.94 µM
  TGI: > 100 µM
[52]
  GI50: 3.72 µM
  TGI: 66.8 µM
[53]
  GI50: 4.71 µM
  TGI: > 100 µM
[54]
  GI50: 4.3 µM
  TGI: 76.9 µM
[55]
  GI50: 2.3 µM
  TGI: 9.79 µM
[56]
  GI50: 5.93 µM
  TGI: > 100 µM
